This note sets out measurements from patent US20210205253A1, “Use Of Stearic Acid For Preventing Or Treating Pulmonary Fibrosis” (THE ASAN FOUNDATION, priority 2018, published 2021).

Assay [1] concerns human pulmonary epithelial cells (BEAS-2B). Put plainly: Cell viability (MTT) of human pulmonary epithelial cells. The following applies: stearic acid 40 uM/mL + TGF-β 5 ng/mL, 24 h, versus TGF-β alone. Format: cell-based. How it is done:
(§1) After epithelial cells and fibroblasts were aliquoted into 6-well plates at 2×10^4 cells/well and a stabilization time was imparted for 24 hours, and 15 hours after deficiency, cells were treated with stearic acid (40 uM/mL), TGF-β (5 ng/mL), and stearic acid (40 uM/mL)+TGF-β (5 ng/mL) in this order. After the cells were cultured in an incubator for 24 hours after the treatment, the next-step experiment was performed.
(§2) After a 24-hour cell stimulation by the method in Example 1-3 was completed, the medium of epithelial cells and fibroblasts was replaced with a general culture medium, 10 μl of an MTT solution (20 mg/ml) was further added, and then the outside of the plate was wrapped with aluminum foil and cells were cultured in an incubator for 2 hours. […] After 2 hours, cell activation was measured at an absorbance value of 595 nm using an ELISA reader.
(§3) For this purpose, after each culture (BEGM(Lonza) in the case of MRC-5, and BMEM (ATCC) in the case of BEAS-2B) of human pulmonary fibroblasts (MRC-5; ATCC® CCL171™) and human pulmonary epithelial cells (BEAS-2B; ATCC® CRL9609™) was treated with stearic acid (40 uM/mL), TGF-β (5 ng/mL; Sigma), or stearic acid (40 uM/mL)+TGF-β (5 ng/mL) by the method described in Example 1-3 for 24 hours, cell viability was measured by the method in Example 1-4. […]

The test system of assay [2] is human primary fibroblasts. Put plainly: Combined treatment of stearic acid and nintedanib in human primary fibroblasts. The following applies: 40 μM stearic acid single treatment versus TGF single treatment. In kind it is cell-based. How it is done:
The primary fibroblasts derived from the patients with idiopathic pulmonary fibrosis used in the following experiment were cultured for 7 to 10 days while cutting the lung tissue of the patient into 1×1 mm^2 slices, and then periodically exchanging a cell culture solution (Eagle's minimal essential medium; EMEM) supplemented with 100 unit/ml penicillin, 100 μg/ml streptomycin, and 10% fetal bovine serum (FBS) under conditions of 5% CO2 and 37° C., and cells of passage 2 to 5 were used for the experiment. To verify the anti-fibrotic effect by the combined treatment of stearic acid and nintedanib, which is another therapeutic agent for idiopathic pulmonary fibrosis, human primary fibroblasts were respectively or simultaneously treated with 5 ng/ml TGF-β, 40 μM stearic acid, and 1.5 or 2 μM nintedanib for 24 hours, and then the expression levels of collagen type 1 (COL-1) and α-SMA, which are markers of fibrosis, were measured, respectively.

The test system of assay [3] is human primary fibroblasts. The assay is described as follows: Combined treatment of stearic acid and pirfenidone in human primary fibroblasts (western blotting). As to conditions: TGF-β 5 ng/ml; 40 μM stearic acid single treatment (Lane 4). Format: cell-based. How it is done:
The primary fibroblasts derived from the patients with idiopathic pulmonary fibrosis used in the following experiment were cultured for 7 to 10 days while cutting the lung tissue of the patient into 1×1 mm^2 slices, and then periodically exchanging a cell culture solution (Eagle's minimal essential medium; EMEM) supplemented with 100 unit/ml penicillin, 100 μg/ml streptomycin, and 10% fetal bovine serum (FBS) under conditions of 5% CO2 and 37° C., and cells of passage 2 to 5 were used for the experiment.
To verify the anti-fibrotic effect by the combined treatment of stearic acid and pirfenidone, which is a therapeutic agent for idiopathic pulmonary fibrosis, the human primary fibroblasts isolated by the above-described method were respectively or simultaneously treated with 5 ng/ml TGF-β, 40 μM stearic acid, and 400 or 800 μM pirfenidone for 24 hours, and then the expression levels of collagen type 1 (COL-1) and α-SMA, which are markers of fibrosis, were measured by western blotting, and the inhibitory rate was quantitatively analyzed by correcting the amount of each protein with the amount of actin, which is an intracellular control protein.
Background: Immunoblotting shows a protein as a band on a membrane.

For assay [4], the system named is human pulmonary fibroblasts (MRC-5). The assay is described as follows: Cell viability (MTT) of human pulmonary fibroblasts. In kind it is cell-based. As to conditions: stearic acid 40 uM/mL + TGF-β 5 ng/mL, 24 h, versus TGF-β alone. How it is done:
as §1, §2, §3

Assay [5] has as its system pulmonary fibrosis induced by bleomycin. The assay is described as follows: Stearic acid in bleomycin-induced pulmonary fibrosis animal model. In kind it is in vivo, mice (C57BL6J). The text has this: Based on the results of Example 2-2, the present inventors attempted to verify the anti-fibrotic effect of stearic acid in an animal model in which pulmonary fibrosis was induced by bleomycin. For this purpose, 6-week-old mice (C57BL6J) were classified into the following 4 groups of 4 or 5 mice, respectively: groups treated with (1) intratracheal saline+vehicle, (2) intratracheal saline+stearic acid, (3) intratracheal 4 units/kg bleomycin+vehicle, and (4) intratracheal bleomycin+stearic acid. Subsequently, mice were anesthetized with 50 mg/kg […] and 5 mg/kg Rompun, followed by infusion of bleomycin and saline into the trachea. The mice were treated with 3 mg/kg stearic acid using oral gavage (zonde) three times a week for 3 weeks. Thereafter, on day 21, lung tissues and blood were collected from the mice and used for the study.

Assay [6] shares this test system. Put plainly: Combined stearic acid and pirfenidone in bleomycin pulmonary fibrosis animal model. Format: in vivo, mice (C57BL/6J). As to conditions: 3 mg/kg stearic acid, 300 mg/kg pirfenidone oral once every 2 days for 2 weeks; versus bleomycin group. As for the experimental part:
In addition to the results of the above examples, the present inventors sought to confirm the anti-fibrotic effect by the combined treatment of stearic acid and pirfenidone in a pulmonary fibrosis animal model. For this purpose, 8-week-old mice (C57BL/6J) were anesthetized with 50 mg/kg […] and 5 mg/kg Rompun, followed by injection of bleomycin and saline into the trachea. From 7 days after administration of bleomycin, 3 mg/kg stearic acid, 300 mg/kg pirfenidone or the two drugs were orally administered at the same time once every 2 days for 2 weeks, and changes in mouse body weight were measured up to 21 days after administration of bleomycin.

Where [7] appears, read: day 21, stearic acid 3 mg/kg oral.

SMILES strings stand for the structures.

Take `CCCCCCCCCCCCCCCCCC(=O)O` [stearic acid]: in assay [1], the “cell viability of pulmonary epithelial cells” value is recorded as “cell viability increased”. Also, in assay [2], the “expression level of COL-1” value is reported as “no change” and the “expression level of α-SMA” value was “no change”. Besides, in assay [3], the “change in COL-1” value was “insignificant” and the α-SMA result is “reduced”. Further, in assay [4], the “cell viability of pulmonary fibroblasts” value is “cell viability decreased”. Besides, in assay [5] (day 7, stearic acid 3 mg/kg oral gavage three times a week), the “reduction in body weight due to bleomycin” value is recorded as “significantly inhibited”. In assay [5] (setting [7]), the “expression of p-Smad2/3 in lung tissues” value is given as “inhibition of an increase in expression of p-Smad2/3” and the “expression of α-SMA in lung tissues” value is recorded as “inhibiting an increase in expression of α-SMA”. Further, in assay [5] (day 21, stearic acid 3 mg/kg oral, 3 weeks), the “histopathological characteristics of pulmonary fibrosis (H&E)” value is recorded as “remarkably reduced”. Further, the accumulation of hydroxyproline entry in assay [5] (lung tissue, day 21, stearic acid 3 mg/kg oral) was “inhibiting the accumulation of hydroxyproline”. Further, in assay [5] (serum, day 21, stearic acid 3 mg/kg oral), the “blood level of TGF-β1” value is recorded as “inhibiting an increase in the blood level of TGF-β1”. The level of hydroxyproline result in assay [6] is reported as “partially reduced”.
